One experiment deals with steroid 5α-reductase. To be noted: cited from earlier work; for Ki: read-out: K1; for reversibility of inhibition (Reversible / Irreversible): printed in parentheses beside K1; for mode of inhibition (in words): literature statement in text.
Experiment [1] deals with T1, human steroid 5α-reductase (Homo sapiens, UniProt P31213).
T1 construct: using tissue from hyperplastic human prostates; from tissue; host or cells: frozen human prostates (hyperplastic), washed particulate fraction from differential centrifugation
T1 sequence (P31213 1-254): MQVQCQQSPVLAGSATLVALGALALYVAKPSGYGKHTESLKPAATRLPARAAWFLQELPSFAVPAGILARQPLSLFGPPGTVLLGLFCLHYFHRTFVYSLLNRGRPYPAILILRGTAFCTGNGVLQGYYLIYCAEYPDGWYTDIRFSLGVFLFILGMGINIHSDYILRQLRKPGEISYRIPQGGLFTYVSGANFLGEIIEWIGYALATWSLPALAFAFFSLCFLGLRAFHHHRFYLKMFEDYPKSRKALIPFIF
Description: Inhibition of human prostatic steroid 5α-reductase ([14C]-testosterone conversion, Dixon analysis). In kind it is biochemical. As to the method: In determining potency in inhibiting the human enzyme, the following procedure was employed:
The resulting pellet was suspended in 20 mM potassium phosphate buffer, pH 6.5, containing 20% glycerol, 1 mM dithiothreitol, and 50 μM NADPH. The suspended particulate solution was stored at -80° C.
To each tube was added buffer, 20 μl of 10 mM NADPH and an aliquot of prostatic particulate solution to a final volume of 1.0 ml of 50 mM sodium citrate, pH 5.0. After incubating the solution at 37° C. for 20 to 30 minutes the reaction was quenched by the addition of 4 ml ethyl acetate and 0.25 μmol each of testosterone, dihydrotestosterone, androstanediol, and androstanedione as carriers. […] The radiochemical content in the bands of the substrate and the products was determined with a BIOSCAN Imaging Scanner (Bioscan, Inc., Washington, D.C.). The percent of recovered radiolabel converted to product was calculated, from which enzyme activity was determined. […]
The experimentally obtained data was computer fitted to a linear function by plotting the reciprocal of the enzyme activity (1/velocity) against the variable inhibitor concentration (Dixon, M. (1953), Biochem. J., 55, 170). Assuming that the steroidal inhibitor is a competitive inhibitor against testosterone, a value for the inhibition constant (Ki) can be calculated from equation 1: […]

[2] abbreviates: 5α-reductase inhibitors, literature reference given per compound.

Where two headings read alike, the source gives them in different places.

For the compound `CCN(CC)C(=O)[C@H]1CC[C@H]2[C@@H]3CC[C@H]4N(C)C(=O)CC[C@]4(C)[C@H]3CC[C@]12C` [(4)], the Ki at steroid 5α-reductase (setting [2]) is 5 nM. Besides, in the experiment with steroid 5α-reductase, the “reversibility of inhibition (Reversible / Irreversible)” value is on record as “Reversible”.

For the compound `CC(C)N(C(=O)[C@H]1CC[C@H]2[C@@H]3CC=C4C=C(P(=O)(O)O)CC[C@]4(C)[C@H]3CC[C@]12C)C(C)C` [Example 1, 17β-(N,N-diisopropylcarboxamide)-androst-3,5-diene-3phosphonic acid], in experiment [1] (hyperplastic human prostate particulate, pH 5.0, 37° C., 20 to 30 minutes, competitive inhibition against testosterone assumed, read-out: Ki (inhibition constant of human prostatic steroid 5α-reductase)), the Ki lay in the range of 15 to 40 nM.

Regarding `C[C@]12CC[C@H]3[C@@H](CCC4=CC(=O)CC[C@@]43C)[C@@H]1CC[C@@H]2C(=O)O` [(1)], the Ki at steroid 5α-reductase (setting [2]) is 1100 nM. Also, in the experiment with steroid 5α-reductase, the “reversibility of inhibition (Reversible / Irreversible)” value is reported as “Reversible”.

Take `CC(=O)C1CCC2C3CC=C=CC(=O)CCC(=O)C3CCC12C` (centres unmarked) [(2)]: at steroid 5α-reductase (setting [2]), the Ki was 1000 nM. Moreover, the “reversibility of inhibition (Reversible / Irreversible)” value in the experiment on steroid 5α-reductase is on record as “Irreversible”.

Take `CC(CO)[C@H]1CC[C@H]2[C@@H]3CC[C@H]4C(=[N+]=[N-])C(=O)CC[C@]4(C)[C@H]3CC[C@]12C` (some centres unmarked) [(3)]: in the experiment on steroid 5α-reductase, the “mode of inhibition (in words)” value was “potent, time-dependent inhibitor of steroid 5α-reductase” and the “reversibility of inhibition (Reversible / Irreversible)” value was “Irreversible”. For the same compound, at steroid 5α-reductase (unit inferred, Blohm, et al., 1980), the Ki was 35 nM.

Take `CC(C)N(C(=O)[C@H]1CC[C@H]2[C@@H]3CCC4=CC(P(=O)(O)O)=CC[C@]4(C)[C@H]3CC[C@]12C)C(C)C` [Example 30, 17β-(N,N-diisopropylcarboxamide)-androst-2,4-diene-3-phosphonic acid]: the Ki in experiment [1] worked out at 160 nM.

`C=C1C[C@@H]2[C@H](CC[C@@]3(C)[C@H]2CC[C@]3(OC(C)=O)C(C)=O)[C@@]2(C)CCC(=O)C=C12` [(5)]: the Ki at steroid 5α-reductase (setting [2]) was 1250 nM. In addition, in the experiment with steroid 5α-reductase, the “mode of inhibition (in words)” value is listed as “time dependent inactivator of steroid 5α-reductase” and the “reversibility of inhibition (Reversible / Irreversible)” value is given as “Irreversible”.

(Values after patent US4946834A, “Phosphonic acid substituted steroids as steroid 5α-reductase inhibitors” (priority 1988, dated 1990).)
